Like-named read-outs stand apart in the source and are kept apart here.
Columns and labels:
[1] = system: LPS-induced microglia activation; assay: Image-based assay of LPS-induced microglia activation (HTS and dose response); type: cell-based, rat; conditions: for inhibition at 10 µM: Rattus norvegicus, Microglia, read-out: LPS % inhibition
[2] = system: fibrin- and LPS-induced microglia activation; assay: cells; type: cell-based, rat
[3] = system: primary rat microglia; assay: Cell toxicity (dead cells, size <150 μm2) in LPS assay
[4] = system: primary rat microglia; assay: Cell toxicity (dead cells, size <150 μm2) in coated fibrin (cFib) assay;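 note: share of dead cells sized under 150 µm2 at 10 µM in fibrin-stimulated microglia HTS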
[5] = system: fibrin-induced microglia activation; assay: Image-based assay of fibrin-induced microglia activation (HTS and dose response); type: cell-based, rat; conditions: for inhibition at 10 µM: Rattus norvegicus, Microglia, read-out: Fibrin % inhibition
[6] = 48 h, primary microglia HTS, LPS stimulation, increased cell size (>800 μm^2) as marker of activation
[7] = quadrant by fibrin and LPS inhibition in HTS of 1907 compounds
[8] = primary microglia HTS, LPS stimulation, decreased size (<150 μm^2) as marker of toxicity
[9] = primary microglia HTS, fibrin stimulation, decreased size (<150 μm^2) as marker of toxicity
[10] = primary microglia HTS, fibrin stimulation, increased cell size (>800 μm^2) as marker of activation
[11] = primary microglia HTS, 10 μM, LPS-stimulated, cell size >800 μm^2 as marker of activation
[12] = HTS of 1907 compounds, quadrant by fibrin and LPS inhibition
[13] = primary microglia HTS, 10 μM, LPS assay, cell size <150 μm^2 as marker of toxicity
[14] = primary microglia HTS, 10 μM, fibrin assay, cell size <150 μm^2 as marker of toxicity
[15] = primary microglia HTS, 10 μM, fibrin-stimulated, cell size >800 μm^2 as marker of activation
[16] = 48 h, primary microglia HTS, LPS stimulation, activation = cell size >800 μm2
[17] = primary microglia HTS, LPS stimulation, toxicity = cell size <150 μm2
[18] = primary microglia HTS, fibrin stimulation, toxicity = cell size <150 μm2
[19] = primary microglia HTS, fibrin stimulation, activation = cell size >800 μm2
[20] = primary HTS, 10 μM, LPS-stimulated primary microglia
[21] = primary HTS, 10 μM, LPS assay, dead cells size <150 μm2
[22] = primary HTS, 10 μM, fibrin assay, dead cells size <150 μm2
[23] = primary HTS, 10 μM, fibrin-stimulated primary microglia

Structure (SMILES): CCCCCCCC/C=C\CCCCCCCC(=O)O [Oleic Acid]
- inhibition at 10 µM [1, 6]: 25%
- Quadrant (FIG. 5b) [2, 7]: Q4
- LPS % cell toxicity [3, 8]: 1%
- Fibrin % cell toxicity [4, 9]: 1%
- inhibition at 10 µM [5, 10]: 23%

Structure (SMILES): C[C@]12Cc3c[nH]nc3C[C@@H]1CC[C@@H]1[C@@H]2CC[C@@]2(C)[C@H]1CC[C@]2(C)O [Stanozolol]
- inhibition at 10 µM [1, 11]: 33%
- Quadrant (FIG. 5b) [2, 12]: Q4
- LPS % cell toxicity [3, 13]: 1%
- Fibrin % cell toxicity [4, 14]: 1%
- inhibition at 10 µM [5, 15]: -5%

Structure (SMILES): CCCCCC(=O)O[C@]1(C(C)=O)CC[C@H]2[C@@H]3CCC4=CC(=O)CC[C@]4(C)[C@H]3CC[C@@]21C [Hydroxyprogesterone Caproate]
- inhibition at 10 µM [1, 16]: 25%
- Quadrant (FIG. 5b) [2, 7]: Q4
- LPS % cell toxicity [3, 17]: 0%
- Fibrin % cell toxicity [4, 18]: 1%
- inhibition at 10 µM [5, 19]: 22%

Structure (SMILES): CCCCCCc1ccc(O)cc1O [Hexylresorcinol]
- inhibition at 10 µM [1, 16]: 18%
- Quadrant (FIG. 5b) [2, 7]: Q4
- LPS % cell toxicity [3, 17]: 0%
- Fibrin % cell toxicity [4, 18]: 1%
- inhibition at 10 µM [5, 19]: -6%

Structure (SMILES): CN1[C@@H]2CC[C@H]1C[C@@H](OC(=O)c1c[nH]c3ccccc13)C2 [Tropisetron]
- inhibition at 10 µM [1, 11]: 14%
- Quadrant (FIG. 5b) [2, 12]: Q4
- LPS % cell toxicity [3, 13]: 0%
- Fibrin % cell toxicity [4, 14]: 0%
- inhibition at 10 µM [5, 15]: -28%

Structure (SMILES): OC[C@@H](O)[C@@H](O[C@@H]1O[C@H](CO)[C@H](O)[C@H](O)[C@H]1O)[C@H](O)[C@@H](O)CO [Lacitol]
- LPS % inhibition ([1]; primary microglia HTS, LPS stimulation, activation = cell size >800 μm2): 18%
- Quadrant (FIG. 5b) [2, 7]: Q4
- LPS % cell toxicity [3, 17]: 1%
- Fibrin % cell toxicity [4, 18]: 1%
- Fibrin % inhibition [5, 19]: −24%

Structure (SMILES): CC(C)CCC[C@@H](C)[C@H]1CC[C@H]2[C@@H]3CC=C4C[C@@H](O)CC[C@]4(C)[C@H]3CC[C@]12C [Cholesterol]
- inhibition at 10 µM [1, 20]: 9%
- Quadrant (FIG. 5b) ([2]; primary HTS, 10 μM): Q4
- LPS % cell toxicity [3, 21]: 0%
- Fibrin % cell toxicity [4, 22]: 0%
- inhibition at 10 µM [5, 23]: 4%

Structure (SMILES): COc1ccc2cc1Oc1ccc(cc1)C[C@H]1c3c(cc4c(c3Oc3cc5c(cc3OC)CCN(C)[C@@H]5C2)OCO4)CCN1C [Cepharanthine]
- inhibition at 10 µM [1, 6]: 130%
- Quadrant (FIG. 5b) [2, 7]: Q2
- LPS % cell toxicity [3, 8]: 58%
- Fibrin % cell toxicity [4, 9]: 85%
- inhibition at 10 µM [5, 10]: 114%

Structure (SMILES): C=COCC(F)(F)F [Fluroxene]
- inhibition at 10 µM [1, 16]: 11%
- Quadrant (FIG. 5b) [2, 7]: Q4
- LPS % cell toxicity [3, 17]: 0%
- Fibrin % cell toxicity [4, 18]: 0%
- inhibition at 10 µM [5, 19]: -19%

Structure (SMILES): CC(=O)N(CC(O)CN(C(C)=O)c1c(I)c(C(=O)NCC(O)CO)c(I)c(C(=O)NCC(O)CO)c1I)c1c(I)c(C(=O)NCC(O)CO)c(I)c(C(=O)NCC(O)CO)c1I (stereo not drawn) [Iodixanol]
- inhibition at 10 µM [1, 16]: 10%
- Quadrant (FIG. 5b) [2, 7]: Q4
- LPS % cell toxicity [3, 17]: 0%
- Fibrin % cell toxicity [4, 18]: 0%
- inhibition at 10 µM [5, 19]: -15%

Structure (SMILES): COc1c2ccoc2cc2oc(=O)ccc12 [Bergapten]
- inhibition at 10 µM [1, 20]: 22%
- Quadrant (FIG. 5b) ([2]; primary HTS, 10 μM): Q4
- LPS % cell toxicity [3, 21]: 0%
- Fibrin % cell toxicity [4, 22]: 1%
- inhibition at 10 µM [5, 23]: -5%

Structure (SMILES): Cc1cc(O)ccc1Cl [Chlorocresol]
- inhibition at 10 µM [1, 20]: 11%
- Quadrant (FIG. 5b) ([2]; primary HTS, 10 μM): Q4
- LPS % cell toxicity [3, 21]: 0%
- Fibrin % cell toxicity [4, 22]: 1%
- inhibition at 10 µM [5, 23]: -25%
